This is an account of results in patent US11187660B2, “Fluorescent probes for monitoring voltage by photo-induced electron transfer” (The Regents of the University of California, priority 2011, dated 2021).

Data set [1] has as its system HEK cells. Description: Bleach rate in HEK cells. It counts as cell-based, human. The note with it: for bleach rate: HEK cells, 7 W/cm^2; for bleach rate, fold smaller than di-4-ANEPPS: identical illumination conditions. As to the method: The dibutyl (VFx.4.Cl) dyes stain the cell membranes of HEK293 cells when loaded at a concentration of 2 μM for 15 min at 37° C. in buffer with 0.1% DMSO as cosolvent (FIG. 9A, and FIG. 10). […] The bleach rates of the probes were tested in HEK cells and compared with di-4-ANEPPS. The bleach rates for VF1.4.Cl, VF2.4.Cl, and VF2.1.Cl at 7 W/cm^2 were measured to be 3.9±0.1×10^−2 s^−1, 1.8±0.1×10^−2 s^−1, and 8.0±0.1×10^−3 s^−1, respectively.
For studies to determine excitation sensitivity of dyes, illumination was provided by a Polychrom IV light source (T.I.L.L. Photonics GMBH) with a mechanical shutter (Uniblitz VS25). For all other studies, light was provided by an Xenon arc lamp powered by an Optiquip Power supply (Optiquip) with a mechanical shutter controlled by a Lambda 10-2 controller (Sutter). Light from the Xenon arc lamp was filtered through a 480 nm filter (30 nm bandpass, Chroma), a 510 nm dichroic (Semrock), a 530 nm emission filter (50 nm bandpass, Semrock), and focused through a 40×/1.4 oil objective. For di-4-ANEPPS imaging, a 625 nm emission filter with a 50 nm bandpass was used. Bleaching studies used identical illumination conditions (480/30 nm excitation, 510 nm dichroic, 7 W/cm^2 output) and were corrected by normalizing for the extinction coefficient at the excitation wavelengths (465-495 nm).

A further data set relates to leech Retzius cells. Description: Capacitative loading in leech Retzius cells. It counts as cell-based, Hirudo medicinalis. The note with it: hyperpolarizing current injection, dye at three times the working concentration. The source says:
We injected hyperpolarizing current into the Retzius cells of leech ganglia preparations and compared the time constants for these voltage steps in ganglia under different dye loading conditions. The ganglia were stained with dye at three times the working concentration [either VF2.1.Cl or diSBA-C4-(3) (14)] and compared with unloaded cells.
Isolated midbody ganglia (Ganglia 8-16) were dissected from Hirudo medicinalis and the ventral side was desheathed using standard procedures. The voltage sensitive dye was combined with HEPES saline down to the desired concentration (100-300 nM), and 1.5 μL of a 20% (w/v) solution of Pluronic F-127 in DMSO. The dye was then continuously pumped over the ganglion to help with penetration into the cell membranes for 20-30 minutes. […]
Electrophysiological measurements were made with paired electrode recordings with resistances in the range of 20-40 MΩm. Electrode 1 acted as the recording electrode, which constantly monitored membrane potential, and electrode 2 acted as the current injecting electrode. […] The capacitance C was calculated with the formula C=tau*I/ΔV, where I=1 nA and the hyperpolarization ΔV was 15-18 mV. Tau was measured two ways: 1) the time required for the normalized curve to reach (1-1/e); 2) the time constant of the best fit exponential or sum of exponentials. […] Spontaneous Retzius cell activity was measured with a single electrode.

In data set [2] the test system is HEK cells. Description: Speed of optical response to voltage steps in HEK cells. It is filed as cell-based, human. The note with it: 100 mV step from holding potential −60 mV. The text has this: Membrane voltage of cells loaded with VF1.4.Cl or VF2.4.Cl were controlled by making tight-seal whole-cell recordings. Cells were maintained at a holding potential of −60 mV and stepped for 50 ms to various depolarizing and hyperpolarizing potentials (FIG. 5A), while simultaneously acquiring epifluorescence images. For both sensors, depolarizing steps result in fluorescence increases while hyperpolarizing steps decrease fluorescence intensity, in keeping with our proposed mechanism. […] For di-4-ANEPPS, typical values are 0.08-0.12% per mV. […] To assess the speed of the optical response to voltage, VF2.4.Cl signals were monitored in response to voltage steps of 100 mV from a holding potential of −60 mV.
We characterized the voltage sensitivity of all three indicators by making tight-seal whole-cell recordings of HEK293 cells stained with the VF sensors. […] For all three dyes, depolarizing steps produced fluorescence increases, whereas hyperpolarizing steps produced fluorescence decreases, in keeping with the proposed PeT mechanism. The fluorescence response is linear over the range of −100 mV to +100 mV (FIG. 9C), with voltage sensitivities ΔF/F per 100 mV of 20±1% for VF1.4.Cl and 25±1% for VF2.4.Cl. […]

SMILES strings stand for the structures.

For the compound `CN(C)c1ccc(/C=C/c2ccc(/C=C/c3ccc(-c4c5cc(Cl)c(=O)cc-5oc5cc(O)c(Cl)cc45)c(S(=O)(=O)O)c3)cc2)cc1` [VF2.1.Cl, 5-(4-(4-(dimethyllamino)styryl)styryl)-2-(2,7-dichloro-6-hydroxy-3-oxo-3H-xanthen-9-yl)benzenesulfonic acid], in the data set on HEK cells [1], the bleach rate is 8.0±0.1×10^−3 s^−1 and the “bleach rate, fold smaller than di-4-ANEPPS” value is on record as “ninefold smaller”. The “capacitative load on the membrane” value with leech Retzius cells is reported as “no difference from control cells”.
On to `CCCCN(CCCC)c1ccc(/C=C/c2ccc(/C=C/c3ccc(-c4c5cc(Cl)c(=O)cc-5oc5cc(O)c(Cl)cc45)c(S(=O)(=O)O)c3)cc2)cc1` [VF2.4.Cl, 5-(4-(4-(dibutylamino)styryl)styryl)-2-(2,7-dichloro-6-hydroxy-3-oxo-3H-xanthen-9-yl)benzenesulfonic acid], for which, in the data set on HEK cells [2], the “τoff, optical” value was 147±19 μs and the “τon, optical” value was 138±14 μs. For the same compound, in the data set with HEK cells [1], the bleach rate is listed as 1.8±0.1×10^−2 s^−1 and the “bleach rate, fold smaller than di-4-ANEPPS” value is “four-”.
